Source: patent US10174044B2, “Fused pyridines as kinase inhibitors” (BRISTOL-MYERS SQUIBB COMPANY, priority 2015, dated 2019)
pIC50: −log10 of the molar value.

What follows are molecules tested against GST-Xa-hAAK1 (Homo sapiens (Human), UniProt Q2M2I8) (assay: AAK1 Kinase Assay). Settings: bacterially expressed GST-Xa-hAAK1 3.5 nM; ATP 22 μM; fluoresceinated peptide substrate 1.5 μM; 3 hours at room temperature.
Assay type: biochemical
Protocol: The assays were performed in U-bottom 384-well plates. […] The reactions were initiated by the combination of bacterially expressed, GST-Xa-hAAK1 with substrates and test compounds. The reactions were incubated at room temperature for 3 hours and terminated by adding 60 μl of 35 mM EDTA buffer to each sample. The reactions were analyzed on the Caliper LabChip 3000 (Caliper, Hopkinton, Mass.) by electrophoretic separation of the fluorescent substrate and phosphorylated product. […] Compounds were dissolved at 10 mM in dimethylsulfoxide (DMSO) and evaluated at eleven concentrations. IC50 values were derived by non-linear regression analysis.

GST-Xa-hAAK1, sequence (Q2M2I8 whole entry): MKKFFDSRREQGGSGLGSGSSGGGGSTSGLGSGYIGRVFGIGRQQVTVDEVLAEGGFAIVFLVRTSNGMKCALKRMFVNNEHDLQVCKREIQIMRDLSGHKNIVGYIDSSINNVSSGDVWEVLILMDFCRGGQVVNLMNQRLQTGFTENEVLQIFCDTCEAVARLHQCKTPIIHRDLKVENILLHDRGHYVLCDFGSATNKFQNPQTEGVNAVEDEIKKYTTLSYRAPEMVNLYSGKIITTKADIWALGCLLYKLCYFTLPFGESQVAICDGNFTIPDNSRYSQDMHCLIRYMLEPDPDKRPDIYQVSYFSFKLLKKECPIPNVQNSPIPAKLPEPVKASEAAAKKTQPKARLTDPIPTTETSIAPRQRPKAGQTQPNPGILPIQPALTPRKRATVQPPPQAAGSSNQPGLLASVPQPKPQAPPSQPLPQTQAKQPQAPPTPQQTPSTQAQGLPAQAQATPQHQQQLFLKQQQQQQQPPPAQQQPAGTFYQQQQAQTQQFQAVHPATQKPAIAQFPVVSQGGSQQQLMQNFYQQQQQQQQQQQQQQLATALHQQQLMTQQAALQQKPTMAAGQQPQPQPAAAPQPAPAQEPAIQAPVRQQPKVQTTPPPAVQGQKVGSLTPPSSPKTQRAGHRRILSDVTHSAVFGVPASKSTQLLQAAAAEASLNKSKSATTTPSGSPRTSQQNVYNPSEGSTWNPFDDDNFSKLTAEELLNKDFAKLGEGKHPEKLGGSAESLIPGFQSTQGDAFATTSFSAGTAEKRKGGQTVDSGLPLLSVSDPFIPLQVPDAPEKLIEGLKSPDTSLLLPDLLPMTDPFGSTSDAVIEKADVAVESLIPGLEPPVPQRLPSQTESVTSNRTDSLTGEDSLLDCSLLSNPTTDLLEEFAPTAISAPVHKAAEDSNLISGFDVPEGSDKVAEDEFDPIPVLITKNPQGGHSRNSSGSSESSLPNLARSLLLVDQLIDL

| SMILES | pIC50 |
| --- | --- |
| CC(C)C[C@H](N)COc1ccc2c(c1)c(=O)[nH]c1cnccc12 [Example 1, (S)-8-((2-amino-4-methylpentyl)oxy)benzo[c][1,7]naphthyridin-6(5H)-one] | 8.02 |
| CC(C)C[C@H](N)COc1ccc2c(c1)c(=O)n(C)c1cnccc21 [Example 2, (S)-8-((2-amino-4-methylpentyl)oxy)-5-methylbenzo[c][1,7]naphthyridin-6(5H)-one] | 7.43 |
| Cc1cc2c(cc1OC[C@@H](N)CC(C)C)c(=O)n(C)c1cnccc21 [Example 3, (S)-8-((2-amino-4-methylpentyl)oxy)-5,9-dimethylbenzo[c][1,7]naphthyridin-6(5H)-one] | 8.49 |
| Cc1cc2c(cc1OC[C@@H](N)CC(C)C)c(=O)n(C)c1c(C)nccc21 [Example 4, (S)-8-((2-amino-4-methylpentyl)oxy)-4,5,9-trimethylbenzo[c][1,7]naphthyridin-6(5H)-one] | 7.85 |
| Cc1nccc2c3cc(Cl)c(OC[C@@H](N)CC(C)C)cc3c(=O)n(C)c12 [Example 5, (S)-8-((2-amino-4-methylpentyl)oxy)-9-chloro-4,5-dimethylbenzo[c][1,7]naphthyridin-6(5H)-one] | 7.06 |
| Cc1cc2c(cc1OCC(N)CCC(F)(F)F)c(=O)n(C)c1cnccc21 (centres unmarked) [Example 6, 8-((2-amino-5,5,5-trifluoropentyl)oxy)-5,9-dimethylbenzo[c][1,7]naphthyridin-6(5H)-one] | 8.43 |
| CC(C)CC(C)(N)COc1ccc2c(c1)c(=O)n(C)c1cnccc21 (centres unmarked) [Example 7, 8-((2-amino-2,4-dimethylpentyl)oxy)-5-methylbenzo[c][1,7]naphthyridin-6(5H)-one] | 7.51 |
| CC(C)CC(C)(N)COc1ccc2c(c1)c(=O)[nH]c1cnccc12 (centres unmarked) [Example 8, 8-((2-amino-2,4-dimethylpentyl)oxy)benzo[c][1,7]naphthyridin-6(5H)-one] | 8.59 |
| Cc1nccc2c3ccc(OCC(C)(N)CC(C)C)cc3c(=O)n(C)c12 (centres unmarked) [Example 9, 8-((2-amino-2,4-dimethylpentyl)oxy)-4,5-dimethylbenzo[c][1,7]naphthyridin-6(5H)-one] | 7.31 |
| Cc1nccc2c3ccc(OC[C@@](C)(N)CC(C)C)cc3c(=O)n(C)c12 [Example 10, (S)-8-((2-amino-2,4-dimethylpentyl)oxy)-4,5-dimethylbenzo[c][1,7]naphthyridin-6(5H)-one] | 7.46 |
| Cc1nccc2c3ccc(OC[C@](C)(N)CC(C)C)cc3c(=O)n(C)c12 [Example 11, (R)-8-((2-amino-2,4-dimethylpentyl)oxy)-4,5-dimethylbenzo[c][1,7]naphthyridin-6(5H)-one] | 7.04 |
| [2H]C([2H])(Oc1cc2c(=O)n(CC)c3c(C)nccc3c2cc1Cl)C(C)(N)CC(C)C (centres unmarked) [Example 12, 8-((2-amino-1,1-dideutero-2,4-dimethylpentyl)oxy)-9-chloro-5-ethyl-4-methylbenzo[c][1,7]naphthyridin-6(5H)-one] | 7.52 |
| [2H]C([2H])(Oc1ccc2c(c1)c(=O)n(C)c1c(C)nccc21)C(C)(N)CC(C)C (centres unmarked) [Example 13, 8-((2-amino-1,1-dideutero-2,4-dimethylpentyl)oxy)-4,5-dimethylbenzo[c][1,7]naphthyridin-6(5H)-one] | 6.93 |
| Cc1cc2c3ccc(OC[C@@](C)(N)CC(C)C)cc3c(=O)n(C)c2cn1 [Example 14, (S)-8-((2-amino-2,4-dimethylpentyl)oxy)-2,5-dimethylbenzo[c][1,7]naphthyridin-6(5H)-one] | 8.09 |
| Cc1nccc2c3ccc(OC[C@@](C)(N)CC(C)C)c(Cl)c3c(=O)n(C)c12 [Example 15, (S)-8-((2-amino-2,4-dimethylpentyl)oxy)-7-chloro-4,5-dimethylbenzo[c][1,7]naphthyridin-6(5H)-one] | 7.23 |
| CCn1c(=O)c2cc(OC[C@@](C)(N)CC(C)C)c(Cl)cc2c2ccnc(C)c21 [Example 16, (S)-8-((2-amino-2,4-dimethylpentyl)oxy)-9-chloro-5-ethyl-4-methylbenzo[c][1,7]naphthyridin-6(5H)-one] | 7.62 |
| Cc1cc2c3ccc(OC[C@@](C)(N)CC(C)C)c(Cl)c3c(=O)n(C)c2cn1 [Example 18, (S)-8-((2-amino-2,4-dimethylpentyl)oxy)-7-chloro-2,5-dimethylbenzo[c][1,7]naphthyridin-6(5H)-one] | 8.52 |
| CCn1c(=O)c2cc(OC[C@@](C)(N)CC(C)C)ccc2c2ccnc(C)c21 [Example 19, (S)-8-((2-amino-2,4-dimethylpentyl)oxy)-5-ethyl-4-methylbenzo[c][1,7]naphthyridin-6(5H)-one] | 5.87 |
| Cc1cc2c3ccc(OC[C@@](C)(N)CC(C)C)c(C)c3c(=O)n(C)c2cn1 [Example 20, (S)-8-((2-amino-2,4-dimethylpentyl)oxy)-2,5,7-trimethylbenzo[c][1,7]naphthyridin-6(5H)-one] | 8.39 |

| SMILES | pIC50 |
| --- | --- |
| Cc1nccc2c3ccc(OC[C@@](C)(N)CC(C)C)cc3c(=O)n(CCO)c12 [Example 21, (S)-8-((2-amino-2,4-dimethylpentyl)oxy)-5-(2-hydroxyethyl)-4-methylbenzo[c][1,7]naphthyridin-6(5H)-one] | 5.95 |
| [2H]C([2H])([2H])n1c(=O)c2cc(OC[C@@](C)(N)CC(C)C)c(Cl)cc2c2ccnc(C)c21 [Example 22, (S)-8-((2-amino-2,4-dimethylpentyl)oxy)-9-chloro-4-methyl-5-(trideuteromethyl)benzo[c][1,7]naphthyridin-6(5H)-one] | 8.49 |
| [2H]C([2H])([2H])n1c(=O)c2cc(OC[C@@](C)(N)CC(C)C)ccc2c2ccnc(C)c21 [Example 23, (S)-8-((2-amino-2,4-dimethylpentyl)oxy)-4-methyl-5-(trideuteromethyl)benzo[c][1,7]naphthyridin-6(5H)-one] | 7.34 |
| Cc1nccc2c3cc(C#N)c(OC[C@@](C)(N)CC(C)C)cc3c(=O)n(C3CC3)c12 [Example 24, (S)-8-((2-amino-2,4-dimethylpentyl)oxy)-5-cyclopropyl-4-methyl-6-oxo-5,6-dihydrobenzo[c][1,7]naphthyridine-9-carbonitrile] | 7.16 |
| Cc1nccc2c3cc(Cl)c(OC[C@@](C)(N)CC(C)C)cc3c(=O)n(C(C)C)c12 [Example 25, (S)-8-((2-amino-2,4-dimethylpentyl)oxy)-9-chloro-5-isopropyl-4-methylbenzo[c][1,7]naphthyridin-6(5H)-one] | 6.64 |
| Cc1cc2c(cc1OC[C@@](C)(N)CC(C)C)c(=O)n(C)c1c(C)nccc21 [Example 26, (S)-8-((2-amino-2,4-dimethylpentyl)oxy)-4,5,9-trimethylbenzo[c][1,7]naphthyridin-6(5H)-one] | 8.27 |
| Cc1nccc2c3cc(Cl)c(OC[C@@](C)(N)CC(C)C)cc3c(=O)n(C)c12 [Example 27, (S)-8-((2-amino-2,4-dimethylpentyl)oxy)-9-chloro-4,5-dimethylbenzo[c][1,7]naphthyridin-6(5H)-one] | 8.77 |
| Cc1nccc2c1[nH]c(=O)c1cc(OC[C@@](C)(N)CC(C)C)c(Cl)cc12 [Example 28, (S)-8-((2-amino-2,4-dimethylpentyl)oxy)-9-chloro-4-methylbenzo[c][1,7]naphthyridin-6(5H)-one] | 6.21 |
| CC(C)C[C@H](N)COc1ccc2c(c1)COc1cnccc1-2 [Example 29, (S)-1-((6H-isochromeno[3,4-c]pyridin-8-yl)oxy)-4-methylpentan-2-amine] | 7.89 |
| CC(C)C[C@H](N)COc1ccc2c(c1)C(C)Oc1cnccc1-2 (stereo partly drawn) [Example 30, (2S)-4-methyl-1-((6-methyl-6H-isochromeno[3,4-c]pyridin-8-yl)oxy)pentan-2-amine] | 7.77 |
| CC(C)C[C@H](N)COc1ccc2c(c1)C(C)(C)Oc1cnccc1-2 [Example 31, (S)-1-((6,6-dimethyl-6H-isochromeno[3,4-c]pyridin-8-yl)oxy)-4-methylpentan-2-amine] | 6.63 |
| Cc1cc2c(cc1OC[C@@H](N)CC(C)C)COc1cnccc1-2 [Example 32, (S)-4-methyl-1-((9-methyl-6H-isochromeno[3,4-c]pyridin-8-yl)oxy)pentan-2-amine] | 8.49 |
| CC(=O)Nc1cc2c(cn1)OCc1cc(OC[C@@H](N)CC(C)C)ccc1-2 [Example 33, (S)—N-(8-((2-amino-4-methylpentyl)oxy)-6H-isochromeno[3,4-c]pyridin-2-yl)acetamide] | 8.68 |
| COC(=O)Nc1cc2c(cn1)OCc1cc(OC[C@@H](N)CC(C)C)ccc1-2 [Example 34, (S)-methyl (8-((2-amino-4-methylpentyl)oxy)-6H-isochromeno[3,4-c]pyridin-2-yl)carbamate] | 8.42 |
| CC(C)C[C@H](N)COc1ccc2c(c1)COc1cnc(N)cc1-2 [Example 35, (S)-8-((2-amino-4-methylpentyl)oxy)-6H-isochromeno[3,4-c]pyridin-2-amine] | 7.96 |
| CC(=O)Nc1cc2c(cn1)OCc1cc(OCC(C)(N)CC(C)C)ccc1-2 (centres unmarked) [Example 36, N-(8-((2-amino-2,4-dimethylpentyl)oxy)-6H-isochromeno[3,4-c]pyridin-2-yl)acetamide] | 8.59 |
| CC(=O)Nc1cc2c(cn1)OCc1cc(OC[C@@](C)(N)CC(C)C)ccc1-2 [Example 37, (S)—N-(8-((2-amino-2,4-dimethylpentyl)oxy)-6H-isochromeno[3,4-c]pyridin-2-yl)acetamide] | 8.62 |
| CC(=O)Nc1cc2c(cn1)OCc1cc(OC[C@](C)(N)CC(C)C)ccc1-2 [Example 38, (R)—N-(8-((2-amino-2,4-dimethylpentyl)oxy)-6H-isochromeno[3,4-c]pyridin-2-yl)acetamide] | 8.11 |
| COC(=O)Nc1cc2c(cn1)OCc1cc(OCC(C)(N)CC(C)C)ccc1-2 (centres unmarked) [Example 39, methyl (8-((2-amino-2,4-dimethylpentyl)oxy)-6H-isochromeno[3,4-c]pyridin-2-yl)carbamate] | 8.09 |
